Measured values published in patent US6372431B1, “Mammalian toxicological response markers” (Incyte Genomics, Inc., priority 1999, dated 2002).
Like-named read-outs stand apart in the source and are kept apart here.

How the values were obtained:
P450 LA-omega 4A3 = assay: microarray gene expression in treated rat liver; type: in vivo; conditions: clofibrate-treated rat liver, 250 mg/kg bw i.p. single dose
Procedure: (§1) For each target preparation, frozen liver was homogenized and lysed in TRIZOL reagent (Life Technologies, Gaithersburg Md.) following the modifications for liver RNA isolation. Messenger RNA was isolated using an OLIGOTEX kit (QIAGEN) and labeled with either Cy3- or Cy5-labeled primers (Operon Technologies, Alameda Calif.) using the GEMBRIGHT labeling kit (Incyte Pharmaceuticals). […] Quantitative and differential expression pattern control cDNAs were added to each labeling reaction. Labeled cDNA was treated with 0.5 M sodium bicarbonate. (pH 9.2) for 20 min at 85 ° C. to degrade the RNA and purified using two successive CHROMA SPIN 30 gel filtration spin columns (Clontech, Palo Alto Calif.). Cy3-labeled control sample and Cy5-labeled experimental sample were combined and precipitated in glycogen, sodium acetate, and ethanol.
(§2) Hybridizations were carried out using the methods described by Shalon (supra).
(§3) The microscope used to detect the reporter-labeled hybridization complexes was equipped with an Innova 70 mixed gas 10 W laser (Coherent Lasers, Santa Clara Calif.) capable of generating spectral lines at 488 nm for excitation of Cy3, and 632 nm for excitation of Cy5. The excitation laser light was focused on the array using a 20×microscope objective (Nikon, Melville N.Y.). The slide containing the array was placed on a computer-controlled X-Y stage on the microscope and raster-scanned past the objective. The 1.8 cm×1.8 cm array used in the present example was scanned with a resolution of 20 micrometers.
(§4) In two separate scans, a mixed gas multiline laser excited the two fluorophores sequentially. Emitted light was split, based on wavelength, into two photomultiplier tube detectors (PMT R1477, Hamamatsu Photonics, San Jose Calif.) corresponding to the two fluorophores. Appropriate filters positioned between the array and the photomultiplier tubes were used to filter the signals. The emission maxima of the fluorophores used were 565 nm for Cy3 and 650 nm for Cy5. Each array was typically scanned twice, one scan per fluorophore using the appropriate filters at the laser source, although the apparatus was capable of recording the spectra from both fluorophores simultaneously.
(§5) When two probes from different sources (e.g., representing test and control cells), each labeled with a different fluorophore, are hybridized to a single array for the purpose of identifying genes that are differentially expressed, the calibration was done by labeling samples of the calibrating cDNA with the two fluorophores and adding identical amounts of each to the hybridization mixture.
(§6) A grid was superimposed over the fluorescence signal image such that the signal from each spot was centered in each element of the grid. The fluorescence signal within each element was then integrated to obtain a numerical value corresponding to the average intensity of the signal. The software used for signal analysis was the GEMTOOLS gene expression analysis program (Incyte Pharmaceuticals).

P450 3A2 = assay: microarray gene expression in treated rat liver; type: in vivo; conditions: clofibrate-treated rat liver, 250 mg/kg bw i.p. single dose
Procedure: as §1, §2, §3, §4, §5, §6

P450 4A = assay: microarray gene expression in treated rat liver; type: in vivo; conditions: clofibrate-treated rat liver, 250 mg/kg bw i.p. single dose
Procedure: as §1, §2, §3, §4, §5, §6

SEQ ID NO:4 = assay: microarray gene expression in treated rat liver; type: in vivo; conditions: CLO-treated rat liver, 250 mg/kg bw i.p. single dose
Procedure: as §1, §2, §3, §4, §5, §6

SEQ ID NO:8 = conditions: male, Sprague-Dawley, rat, in vivo, ip, 250 mg/kg
Procedure: as §1, §2, §3, §4, §5, §6

SEQ ID NO:2 = conditions: male, Sprague-Dawley, rat, in vivo, ip, 250 mg/kg
Procedure: as §1, §2, §3, §4, §5, §6

SEQ ID NO:3 = conditions: male, Sprague-Dawley, rat, in vivo, ip, 250 mg/kg
Procedure: as §1, §2, §3, §4, §5, §6

SEQ ID NO:5 = conditions: male, Sprague-Dawley, rat, in vivo, ip, 250 mg/kg
Procedure: as §1, §2, §3, §4, §5, §6

CCOC(=O)C(C)(C)Oc1ccc(Cl)cc1 [clofibrate]
Gene expression (x-fold change) of P450 LA-omega 4A3 (P450 LA-omega 4A3; 12 hours): 14.8 x-fold change
Gene expression (x-fold change) of P450 LA-omega 4A3 (P450 LA-omega 4A3; 24 hours): 26.6 x-fold change
Gene expression (x-fold change) of P450 LA-omega 4A3 (P450 LA-omega 4A3; 3 days): 1.1 x-fold change
Gene expression (x-fold change) of P450 LA-omega 4A3 (P450 LA-omega 4A3; 7 days): 0.5 x-fold change
Gene expression (x-fold change) of P450 LA-omega 4A3 (P450 LA-omega 4A3; 28 days): 0.47 x-fold change
Gene expression (x-fold change) of P450 3A2 (P450 3A2; 12 hours): 0.14 x-fold change
Gene expression (x-fold change) of P450 3A2 (P450 3A2; 24 hours): 1.2 x-fold change
Gene expression (x-fold change) of P450 3A2 (P450 3A2; 3 days): 0.63 x-fold change
Gene expression (x-fold change) of P450 3A2 (P450 3A2; 7 days): 0.50 x-fold change
Gene expression (x-fold change) of P450 3A2 (P450 3A2; 28 days): 0.45 x-fold change
Gene expression (x-fold change) of P450 4A (P450 4A; 12 hours): 7.0 x-fold change
Gene expression (x-fold change) of P450 4A (P450 4A; 24 hours): 16.6 x-fold change
Gene expression (x-fold change) of P450 4A (P450 4A; 3 days): 1.4 x-fold change
Gene expression (x-fold change) of P450 4A (P450 4A; 7 days): 0.5 x-fold change
Gene expression (x-fold change) of P450 4A (P450 4A; 28 days): 1.3 x-fold change
Gene expression (x-fold change) of SEQ ID NO: 4 (SEQ ID NO:4; 12 hours): 2 x-fold change
Gene expression (x-fold change) of SEQ ID NO: 4 (SEQ ID NO:4; 24 hours): 0.36 x-fold change
Gene expression (x-fold change) of SEQ ID NO: 4 (SEQ ID NO:4; 3 days): 0.47 x-fold change
Gene expression (x-fold change) of SEQ ID NO: 4 (SEQ ID NO:4; 7 days): 0.26 x-fold change
Gene expression (x-fold change) of SEQ ID NO: 4 (SEQ ID NO:4; 28 days): 0.30 x-fold change
Gene expression (x-fold change) of SEQ ID NO: 8 (SEQ ID NO:8; 12 h): 2.6 x-fold change
Gene expression (x-fold change) of SEQ ID NO: 8 (SEQ ID NO:8; 24 h): 1.7 x-fold change
Gene expression (x-fold change) of SEQ ID NO: 8 (SEQ ID NO:8; 3 days): 1.3 x-fold change
Gene expression (x-fold change) of SEQ ID NO: 8 (SEQ ID NO:8; 7 days): 1.3 x-fold change
Gene expression (x-fold change) of SEQ ID NO: 8 (SEQ ID NO:8; 28 days): 1.4 x-fold change
Gene expression (x-fold change) of SEQ ID NO: 2 (SEQ ID NO:2; 12 h): 2.6 x-fold change
Gene expression (x-fold change) of SEQ ID NO: 2 (SEQ ID NO:2; 24 h): 1.4 x-fold change
Gene expression (x-fold change) of SEQ ID NO: 2 (SEQ ID NO:2; 3 days): 0.5 x-fold change
Gene expression (x-fold change) of SEQ ID NO: 2 (SEQ ID NO:2; 7 days): 1.1 x-fold change
Gene expression (x-fold change) of SEQ ID NO: 2 (SEQ ID NO:2; 28 days): 1.2 x-fold change
Gene expression (x-fold change) of SEQ ID NO: 3 (SEQ ID NO:3; 12 h): 1.3 x-fold change
Gene expression (x-fold change) of SEQ ID NO: 3 (SEQ ID NO:3; 24 h): 2 x-fold change
Gene expression (x-fold change) of SEQ ID NO: 3 (SEQ ID NO:3; 3 days): 1.3 x-fold change
Gene expression (x-fold change) of SEQ ID NO: 3 (SEQ ID NO:3; 7 days): 1.5 x-fold change
Gene expression (x-fold change) of SEQ ID NO: 3 (SEQ ID NO:3; 28 days): 1.5 x-fold change
Gene expression (x-fold change) of SEQ ID NO: 5 (SEQ ID NO:5; 12 h): 1.7 x-fold change
Gene expression (x-fold change) of SEQ ID NO: 5 (SEQ ID NO:5; 24 h): 2.9 x-fold change
Gene expression (x-fold change) of SEQ ID NO: 5 (SEQ ID NO:5; 3 days): 1.6 x-fold change
Gene expression (x-fold change) of SEQ ID NO: 5 (SEQ ID NO:5; 7 days): 1.5 x-fold change
Gene expression (x-fold change) of SEQ ID NO: 5 (SEQ ID NO:5; 28 days): 1.2 x-fold change
